Patent publication US11198741B2, “Medicines for topic use based on sulfated hyaluronic acid as activating or inhibiting agent of the cytokine activity” (Fidia Farmaceutici S.p.A., priority 2009, dated 2021)

Tests used:
IL-10 = assay: Gene expression of IL-10 in human synoviocytes (PCR Real Time); type: cell-based; settings: 3 days of treatment, FIG. 1: HAS1 0.5 mg/ml, HAS3 0.1 mg/ml, vs control treated with non-sulfated HA 200 KD
Description: (§1) Human synoviocytes previously expanded in vitro and maintained in a culture at 37° C. with a medium of DMEM containing 10% of FCS, were seeded at a concentration of 20,000 cells per well (synoviocytes are cells capable of producing various types of cytokines, and are therefore normally used for this type of experimental test). […] After 3 days of treatment, the PCR Real Time was effected to evaluate the gene expression of IL-10 and IL-12: the cell RNA was extracted using the “Trizol” method, following the indications of the supplier (TRIZOL reagent, LIFE Technologies, GIBCO BRL). In short, the cells were lysed by the addition of 1.0 ml of Trizol and the total RNA was quantified by measuring its absorbance at 260 nm. The appropriate primers were selected for each gene to be amplified, using the software Primer3 (Roche Molecular Diagnostics, Pleasanton, Calif., USA). The gene expression was evaluated by means of PCR Real Time effected with a Rotor-gene TM5500 (Corbett research, Sydney, Australia). The PCR reactions were effected using primers at […] and SYBR Green (Invitroge, Carlsbad, Calif., USA) at 40 cycles of 15 s at 95° C., and 1 min. at 60° C. The value of “Fluorescence thresholds (Ct)” was automatically determined by the software, evaluating an amplification coefficient for the genes studied between 92 and 110%. […]

IL-12 = assay: Gene expression of IL-12 in human synoviocytes (PCR Real Time); type: cell-based; settings: 3 days of treatment, FIG. 2: 0.5 mg/ml, vs control treated with non-sulfated HA 200 KD
Description: as §1

TNF receptor = assay: Inhibition of the binding of 125I-TNF to its receptor in U937 cells (Radioligand Binding); parameters: species or system human; settings: 125I-TNF 0.028 nM, sample 1 mg/ml, 4° C. 3 hours, medium and low MW
Source text: These experiments were effected to evaluate the effectiveness of the samples tested (prepared according to Examples 1-4) on the capacity of inhibiting the binding of TNF to its receptor expressed by cells of the I.S. normally used in vitro for this type of experiment, carried out with iodinated cytokine components for an evaluation in Radioligand Binding assays. The experimental procedure was effected as described in Baglioni C. et al., J Biol Chem, 1985, 260:13395-13397. In short, the line of human histiocytes of the lymphoma U937 was used, with characteristics of monocytes sensitive to the cytotoxic activity of TNF, expressing its relative receptor. […] At the end of the incubation, the cells were centrifuged with dibutylphthalate/dinonylphthalate 2/1 and the pellet obtained was counted in a γ-counter.

IL-2 = assay: Protein synthesis of IL-2 in human PBMC (SearchLight array); settings: not stimulated or stimulated with LPS or PHA (10 μg/ml), 24 hours, FIG. 6: HAS1 0.1 mg/ml, HAS3 1 mg/ml, vs HA
Description: For these experimentations, mononucleate cells of human peripheral blood (PBMC) were adopted, deriving from various donors for evaluating the effect of HAS on the production of the cytokines listed above, using:
The separation of the PBMC (Bøyum A., Scand J Clin Lab Invest 21 Suppl, 1968, 97:77-89) was effected using the product Ficoll-Paque PLUS (GE Healthcare) and following the protocol indicated by the supplier. At day zero 100,000 cells were plated per well (using plates with 96 wells) in 200 μl of medium RPMI 1640, to which 10% of fetal bovine serum, HEPES 10 mM, Glutamine 2 mM, 1% Penicillin-Streptomycin 100 U/ml, had been added. […] The cells were treated separately with the three compounds at a concentration of 0.1 mg/ml or 1 mg/ml. After 24 hours of incubation at 37° C. (5% CO2), 100 μl of supernatant were taken from each well in order to analyze the production of IL-2, IL-7, IL-10 and IL-12.
The quantification of the inflammation mediators was effected by means of the SearchLight® technology, using a Custom Human 9-flex Array plate following the protocol indicated by the supplier in the technical card.

Q: Which “gene expression of the cytokine IL-10” value (IL-10) does the source give for “sulfated hyaluronic acid degree 3 [HAS3]” here?
A: Its value is “significant increase”.

Q: What about the “gene expression of IL-12 (synthesis of its mRNA)” value (IL-12) of the same substance?
A: Its value is “halving the synthesis of its mRNA”.

Q: What about the “inhibition of the binding of TNF to its receptor” value (TNF receptor) of the same substance?
A: Its value is 100%.

Q: And the “synthesis of IL-2” value (IL-2)?
A: Its value is “significantly reducing”.
